For series [1], the system named is UV-induced lipid peroxidation. Kind of series: in vitro liposomal/UV assay, inhibition of UV-induced lipid peroxidation. The format is biochemical. The method, then: The antioxidant potential and stability of equimolar concentrations of tocopherol-cysteamine, cysteamine, and a α-tocopherol were compared using an in vitro liposomal/UV assay. This assay provides an effective means of measuring an antioxidant's potential to inhibit UV-induced lipid peroxidation which may correlate with the antioxidant's inhibition of free radical generation in the skin. […] The antioxidant contribution of cysteamine to the derivative was tested by measuring cysteamine alone and determined to be 20.1%.

The subject of series [2] is UV-induced lipid peroxidation. Kind of series: UV/liposomal assay of anti-oxidant activity after storage for five years at ambient temperatures. The format is biochemical. As to conditions: for Inhibition: average of two separate assays performed in duplicate; for retention of antioxidant activity on storage: dry powder form, ambient temperatures, five years. Here is the method: The tocopherol sample used in this assay was freshly prepared and stored under argon gas in a sealed amber ampoule at -20° C. […] In contrast, the tocopherol-cysteamine samples used in the assay were stored in dry powder form at ambient temperatures for more than five years. […] In particular, several materials, including two batches of tocopherol-cysteamine, were tested for anti-oxidant activity using a UV/liposomal assay. The results reported below represent the average of two separate assays performed in duplicate.

The test system of series [3] is lipid peroxidation, human skin. Kind of series: clinical study, lipid peroxides in ethanol washes of ventral forearms after topical cream. The format is in vivo. The settings on record: for average level of peroxides, 500 mJ/cm^2 + Ao: UVB 500 mJ/cm^2; for average level of peroxides, 0 + Ao: not irradiated. Here is the method:
A clinical study was undertaken in order to measure the effectiveness of topically applied compositions containing tocopherol-cysteamine on human skin. Protection against lipid peroxidation was used as a biological marker in a study of twenty subjects.
A cream containing 0.10% tocopherol-cysteamine and other antioxidants was prepared using the batch formulation of Table III.
The cream containing 0.10% tocopherol-cysteamine was applied by the panelists to their left ventral forearms twice daily. The same cream formulation without any antioxidants was used as the control and applied to the right ventral forearms. At 0, 4, 8 and 12 weeks, ethanol washes were taken and samples aliquoted for endogenous levels of lipid peroxides, susceptibility to lipid peroxidation by UVB irradiation at 500 mJ/cm^2, and lipid analysis.

The conditions of series [4]: cited from earlier work.
For series [5] the following is noted: ambient temperatures, over a period of one week; cited from earlier work.
Where [6] appears, read: week 0, cream 0.10% tocopherol-cysteamine and other antioxidants.
[7] abbreviates: week 4, cream 0.10%, twice daily.
Setting [8] is: week 8, cream 0.10%, twice daily.
[9] abbreviates: week 12, cream 0.10%, twice daily.

Entries after “also recorded” stand apart in the source; their conditions may differ.

For the compound `Cc1c(C)c2c(c(C)c1O)CCC(C)(C(=O)NCCS)O2` (stereo not drawn) [Tocopherol-cysteamine], in series [1] (0.18 mM), the “% Inhibition (UV-induced lipid peroxidation)” value (from here on “% Inhibition”) is 67.3%. Further, the “antioxidant activity vs α-tocopherol and cysteamine assays combined” value in series [1] (equimolar, 0.18 mM) is “greater than that activity observed in both the α-tocopherol and cysteamine assays combined”. Further, the “average inhibition of UV-induced lipid peroxidation, previous experiments” value in series [1] (triplicate samplings assayed in duplicate) is on record as 65.2% (+/-3.61). In addition, the “activity of 5 year-old vs new batch” value in series [2] (0.010%, 5 year-old vs new batch) is reported as “very similar”. Moreover, the Inhibition (in general, the drop in the measured response relative to a control, in per cent) turned out to be 57.3% in series [2] (5 year-old, 0.010%) and 65.6% in series [2] (new batch, 0.010%). Also, the “retention of antioxidant activity on storage” value in series [2] is listed as “did not lose significant antioxidant activity over this five year period”; in series [2] (listed as tocopheryl-cysteamine), “does not lose any significant anti-oxidant activity”. Also, the “stability compared with α-tocopherol” value in series [2] (storage at ambient temperatures) is “considerably more stable”. The “amount of endogenous peroxides, week 8 vs week 0” value in series [3] (8 weeks vs 0 time point, p value less than 0.1) was “significant decrease”. For the same compound, in series [3] (8 weeks vs 0 time point, p<0.01, t test), the “amount of peroxides generated by UVB, week 8 vs week 0” value was “significant decrease”. The “average values vs untreated samples, 12 weeks” value in series [3] (12 week time point, control and irradiated preparations) is recorded as “lower than the untreated samples”. In addition, the “peroxide levels after irradiation over the course of treatment” value in series [3] (irradiated, treated arms) was “decreased over the course of treatment”. Besides, the “average endogenous peroxide levels over time” value in series [3] (treated but not irradiated) is “decreased over time”. In addition, the “average level of peroxides, 500 mJ/cm^2 + Ao” value in series [3] (setting [6]) turned out to be 17.69; in series [3] (setting [7]) it was 12.95; in series [3] (setting [8]), 10.33; in series [3] (setting [9]), 26.67. Moreover, the “average level of peroxides, 0 + Ao” value came out at 9.10 in series [3] (setting [6]), 8.19 in series [3] (setting [7]), 6.56 in series [3] (setting [8]) and 21.19 in series [3] (setting [9]).

Consider `Cc1c(C)c2c(c(C)c1O)CCC(C)(C(=O)O)O2` (stereo not drawn) [Trolox-C, 6-hydroxy-2,5,7,8-tetra-methylchroman-2-carboxylic acid], for which the “antioxidant activity vs α-tocopherol and other commercial food antioxidants (butylated hydroxytoluene, butylated hydroxyanisole)” value in series [4] (Schaal thin layer oven and AOM tests) was “greater antioxidant activity than α-tocopherol and other commercial food antioxidants”. Also, the “antioxidant effectiveness in vegetable oils and animal fats” value in series [4] (vegetable oils and animal fats) is “extremely effective antioxidant”.

For the compound `Cc1c(C)c2c(c(C)c1O)CCC(C)(CCCC(C)CCCC(C)CCCC(C)C)O2` (stereo not drawn) [Tocopherol, α-Tocopherol], the “% Inhibition” value in series [1] (0.18 mM) is on record as 28.9%. Moreover, in series [5], the “loss of antioxidant potency on storage” value was “lose its antioxidant potency, and in fact become a pro-oxidant; also recorded: gradually lose antioxidant potency and become a prooxidant”.

In the case of `NCCS` [Cysteamine, cysteamine, reference compound], the “% Inhibition” value in series [1] (0.18 mM) is 20.1%.
